Here are results for six molecules from patent US20020115623A1, “Saponin derivatives useful for inhibiting sialyltransferase and biosynthesis of sialoglycoconjugate” (Shui-Tein Chen, priority 2000, published 2002).

The target in test [1] is T1, α2,6-sialyltransferase (Gallus gallus, UniProt Q92183).
T1 construct: made in house
Briefly: Assay of α2,6-sialyltransferase activity. The format is biochemical. To be noted: concentration of inhibitor in assay 20 μM. As for the experimental part:
(§1) α2,3-Sialyltransferases were prepared by the procedures as described by Tsuji et al, Eur J Biochem., 1993, 216(2), 377-85. The suspension of enzyme-bound beads in 250 mM sodium cacodylate buffer (pH 6.4), 25 mM MgCl2, 5 mM CaCl2 was mixed with a Vortex mixer. Then, 4 μl of the enzyme suspension (1×10^−6 Units) was pipetted using a Gilson P-20 pipetter immediately after mixing. The enzyme was then premixed with 4 μl of inhibitors (75 μM) or water (as control) at 25° C. for 5 min. Then, the substrates, 1 μl of CMP-[14C]NeuAc (40 nCi/μl) and 1 μl of Galα1,3GalNAc-Obzl (0.1 mM), were added to the pre-incubated enzyme-inhibitor mixture and incubated at 37° C. for 3 h. The final concentrations of sodium cacodylate, MgCl2, CaCl2, and Galα1,3GalNAc-OBzl in the reaction mixture were 100 mM, 10 mM, 2 mM, and […], respectively. The solution was placed in the ice to stop the reaction. The resulting reaction products were immediately analyzed by silica gel 60 HPTLC plate (Merck, Germany) with a solvent system of ethanol/pyridine/n-butanol/acetate/water (100:10:10:3:30). The radioactivity of the corresponding product and total radioactivity were detected and quantified with a BAS 1500 radio-image analyzer (Fuji Film, Japan).
α2,6-Sialyltransferases were prepared by the procedures as described by Tsuji et al, J Biol Chem., 1994, 269(2), 1402-9. The assay procedures for α2,6-Sialyltransferases were the same as those for α2,3-Sialyltransferases, except that 1 μl of Galα1,3GalNAc-Obzl (0.1 mM) was replaced by 1 μl of fetuin (1 μg/μl).

Test [2] concerns the target T2, α2,3-sialyltransferase (Mus musculus, UniProt P54751).
T2 construct: made in house
T2 sequence (P54751 1-337): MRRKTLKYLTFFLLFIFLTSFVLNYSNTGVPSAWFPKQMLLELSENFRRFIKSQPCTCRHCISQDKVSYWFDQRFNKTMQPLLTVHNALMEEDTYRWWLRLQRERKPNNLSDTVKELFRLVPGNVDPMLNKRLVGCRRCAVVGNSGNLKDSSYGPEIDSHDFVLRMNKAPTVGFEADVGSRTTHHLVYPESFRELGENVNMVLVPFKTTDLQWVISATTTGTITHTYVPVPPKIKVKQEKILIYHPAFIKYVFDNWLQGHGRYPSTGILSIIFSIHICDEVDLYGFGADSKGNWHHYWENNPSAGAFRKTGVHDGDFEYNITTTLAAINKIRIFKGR
Briefly: Assay of α2,3-sialyltransferase activity. The format is biochemical. The conditions noted are these: for Percentage of inhibition (%): concentration of inhibitor in assay 30 μM. Here is the method:
as §1

The test system of test [3] is α-mannosidase. In words: α-Mannosidase assay. It counts as biochemical. Also noted: Relative Activity (%): dose or concentration left out as unconfirmed. As for the experimental part: The α-mannosidase (10 mU/90 μl, Sigma) in 500 mM sodium phosphate buffer (pH 4.5) was mixed with 10 μl inhibitor (5 mM) or water, 100 μl 4-methylumbelliferyl-[…]-mannopyranoside (0.2 mM). The resulting solution was incubated at 37° C. for 30 min. The resulting products were detected through the same procedures as those for sialidase assay.

In test [4] the test system is β-galactosidase. In words: β-Galactosidase assay. The format is biochemical. Also on record: Relative Activity (%): dose or concentration left out as unconfirmed. As for the experimental part:
[…] The resulting solution was incubated at 37° C. for 30 min. The resulting products were detected through the same procedures as those for sialidase assay.

The test system of test [5] is human hepatoma HepG2 cells. Briefly: Growth inhibition of HepG2 cells. It counts as cell-based. To be noted: FIG. 3. As for the experimental part:
(§2) Human breast cancer cell MCF7 and hepatoma cell HepG2 were incubated in 5% CO2 incubator at 37° C. with the MEM (Eagle) medium with Earle's Bss supplemented with 2 mM glutamine, 1.5 g/l sodium bicarbonate, 0.1 mM non-essential amino acids, 1.0 mM sodium pyruvate, 100 units/ml penicillin, 100 μg/ml streptomycin and 2.5 μg/ml amphotericin B and with 10% fetal bovine serum. The cells were transferred weekly to 0.025% trypsin in 0.53 mM EDTA in Ca^2+Mg^2+-free PBS. The cells were incubated in the culture medium with 2.5% fetal bovine serum in the presence of a different concentration (5, 25, 50 and 100 μM, respectively) of the inhibitor in a 5% CO2 incubator at 37° C. for three days.

The subject of test [6] is fucosyltransferase. Briefly: Fucosyltransferase assay. It counts as biochemical. The conditions noted are these: FIG. 1. As for the experimental part: The fucosyltransferase (1 mU/10 μl, Calbiochem) in 100 mM Tris-HCl buffer (pH 7.5) and 40 mM MnCl2 was mixed with 4 μl inhibitor or water, 4 μl N-acetylglucosamine (1 mM) and 2 μl GDP-[^14C]fucose (20 nCi). The resulting solution was incubated at 37° C. for one hour. The reaction products were detected through the same procedures as those for sialyltransferase assay.

The test system of test [7] is cell surface α2,3-sialoglycoconjugates on MCF7. Briefly: Flow cytometry (FITC-MAA) of inhibitor-treated MCF7 cells. To be noted: for Cell surface α2,3-sialoglycoconjugates (%) on MCF7: three days, FITC-MAA stain, control 100. It counts as cell-based, human. Here is the method: (§3) Human breast cancer cell MCF7 and hepatoma cell HepG2 were incubated in 5% CO2 incubator at 37° C. with the MEM (Eagle) medium with Earle's Bss supplemented with 2 mM glutamine, 1.5 g/l sodium bicarbonate, 0.1 mM non-essential amino acids, 1.0 mM sodium pyruvate, 100 units/ml penicillin, 100 μg/ml streptomycin and 2.5 μg/ml amphotericin B and with 10% fetal bovine serum. The cells were transferred weekly to 0.025% trypsin in 0.53 mM EDTA in Ca^2+Mg^2+-free PBS.
(§4) The cells were incubated in the culture medium with 2.5% fetal bovine serum in the presence of a different concentration (5, 25, 50 and 100 μM, respectively) of the inhibitor in a 5% CO2 incubator at 37° C. for three days.
(§5) Fluorescein isothiocyanate labeled Maackia amurensis agglutinin (MAA) and Sambucus nigra agglutinin (SNA), which recognize the oligosaccharide species NeuAcα2,3-Gal-R and NeuAcα2,6-R, respectively, were purchased from Vector Labs Inc. (Burlingame, Calif.). Cells (control and inhibitor-treated). The cells scraped from dishes with a rubber policeman were washed with PBS and stained with fluorescein isothiocyanate labeled MAA and SNA, respectively, in binding buffer (10 mM HEPES, 0.15 M NaCl, pH 7.5) at 4° C. for 1 h. After centrifugation, cells were washed three times with PBS and fixed with 1% paraformaldehyde. The fluorescence intensity was measured with a FACScan flow cytometry (Becton Dickinson, Mountain View, Calif.).
Background: A flow cytometer gives signals particle by particle.

Test [8] relates to cell surface α2,6-sialoglycoconjugates on HepG2. In words: Flow cytometry (FITC-SNA) of inhibitor-treated HepG2 cells. The conditions noted are these: for Cell surface α2,6-sialoglycoconjugates (%) on HepG2: three days, FITC-SNA stain, control 100. It counts as cell-based, human. As for the experimental part:
as §3, §4, §5

Test [9] concerns sialidase. In words: Sialidase assay. The format is biochemical. Also noted: Relative Activity (%): dose or concentration left out as unconfirmed. Here is the method:
The sialidase (10 mU/90 μl, sigma) in 500 mM sodium phosphate buffer (pH 4.5) was mixed with 10 μl inhibitor (5 mM) or water, 100 μl 4-methylumbelliferyl-[…]-acetylneuraminic acid (0.2 mM, sigma). The resulting solution was incubated at 37° C. for 30 min. The solution was added 1 ml quenching buffer (0.133 M glycine-NaOH, pH 10.7, 60 mM NaCl and 41.5 mM Na2CO3) to stop the reaction. The fluorescence intensity of the resulting solution was measured by fluorescence spectrophotometer at 360 nm excitation and at 440 nm emission.

The test system of test [10] is human breast cancer MCF7 cells. Briefly: Growth inhibition of MCF7 cells. It counts as cell-based. To be noted: FIG. 2. Here is the method:
as §2

T1 sequence (Q92183 whole entry): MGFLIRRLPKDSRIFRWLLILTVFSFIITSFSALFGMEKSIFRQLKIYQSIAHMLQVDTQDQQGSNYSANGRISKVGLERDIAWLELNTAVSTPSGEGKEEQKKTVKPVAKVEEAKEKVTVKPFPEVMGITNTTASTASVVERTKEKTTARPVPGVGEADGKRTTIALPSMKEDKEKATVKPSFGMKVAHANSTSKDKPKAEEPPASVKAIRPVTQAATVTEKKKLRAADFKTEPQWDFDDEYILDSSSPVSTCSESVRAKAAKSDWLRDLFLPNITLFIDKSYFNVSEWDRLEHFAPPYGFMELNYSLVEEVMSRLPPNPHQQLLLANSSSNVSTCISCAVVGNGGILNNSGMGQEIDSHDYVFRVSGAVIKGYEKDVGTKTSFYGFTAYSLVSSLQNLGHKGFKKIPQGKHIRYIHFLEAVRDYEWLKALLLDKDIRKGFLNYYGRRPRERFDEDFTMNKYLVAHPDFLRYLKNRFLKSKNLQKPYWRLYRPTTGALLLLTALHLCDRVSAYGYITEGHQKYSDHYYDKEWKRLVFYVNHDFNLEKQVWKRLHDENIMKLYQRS

Regarding `CC1OC(OC2C(OC3C(OC4CCC5(C)C(CCC6(C)C5CC=C5C7CC(C)(C)CC(O)C7(C)CCC56C)C4(C)C)OC(C(=O)O)C(O)C3O)OC(CO)C(O)C2O)C(O)C(O)C1O` (centres unmarked) [kaikasaponin III], the “Percentage of inhibition (%)” value in [1] was 83.2%; in [2], 95.5%.
The like results for `CC1(C)C[C@@H](O)[C@]2(C)CC[C@]3(C)C(=CC[C@@H]4[C@@]5(C)CC[C@H](O[C@@H]6O[C@H](C(=O)O)[C@@H](O)[C@H](O)[C@H]6O[C@@H]6O[C@H](CO)[C@H](O)[C@H](O)[C@H]6O)[C@](C)(CO)[C@@H]5CC[C@]43C)[C@@H]2C1` [soyasaponin III] were, in that order, 23.1% and 61.5%.
The like results for `C[C@@H]1O[C@@H](O[C@H]2[C@H](O[C@H]3[C@H](O[C@H]4CC[C@@]5(C)[C@@H](CC[C@]6(C)[C@@H]5CC=C5[C@@H]7CC(C)(C)C[C@@H](O)[C@]7(C)CC[C@]56C)[C@@]4(C)CO)O[C@H](C(=O)O)[C@@H](O)[C@@H]3O)OC[C@H](O)[C@@H]2O)[C@H](O)[C@H](O)[C@H]1O` [soyasaponin II] were, in that order, 64.4% and 93.3%.
On to `C[C@@H]1O[C@@H](O[C@H]2[C@H](O[C@H]3[C@H](O[C@H]4CC[C@@]5(C)[C@@H](CC[C@]6(C)[C@@H]5CC=C5[C@@H]7CC(C)(C)C[C@@H](O)[C@]7(C)CC[C@]56C)[C@@]4(C)CO)O[C@H](C(=O)O)[C@@H](O)[C@@H]3O)O[C@H](CO)[C@H](O)[C@@H]2O)[C@H](O)[C@H](O)[C@H]1O` [soyasaponin I], for which the “Percentage of inhibition (%)” value in test [1] is reported as 76.9%; in test [2], 89.9%. Further, the “inhibition of mannosidase (in words)” value in test [3] (Table 3) was “did not inhibit”. Further, the “Relative Activity (%)” value is 99.4% in test [3] (soyasaponin I, control 100); 112.0% in [4] (soyasaponin I, control 100); 142.0% in [9] (soyasaponin I, control 100). Besides, in test [4] (Table 3), the “inhibition of galactosidase (in words)” value is “did not inhibit”. In addition, the “growth of human hepatoma HepG2 cells (in words)” value in [5] is listed as “inhibited the growth”. For the same molecule, the “inhibition of fucosyltransferase (in words)” value in test [6] was “not for fucosyltransferase”. Besides, the “Cell surface α2,3-sialoglycoconjugates (%) on MCF7” value in test [7] (5 μM) turned out to be 99.5%; in [7] (25 μM), 68.0%; in test [7] (50 μM), 56.8%; in [7] (100 μM) it was 19.8%. Further, the “decrease of the α2,3-sialoglyconjugates of MCF7 cells” value in test [7] (100 μM) is reported as “about 80%”. The “Cell surface α2,6-sialoglycoconjugates (%) on HepG2” value came to 96.5% in test [8] (5 μM), 85.1% in [8] (25 μM), 76.4% in [8] (50 μM) and 41.4% in [8] (100 μM). The “decrease of cell surface α2,6-sialoglyconjugates of HepG2 cells” value in [8] (100 μM) is reported as “about 60%”. Also, the “inhibition of sialidase (in words)” value in [9] (Table 3) is “did not inhibit”. Further, the “inhibition of sialyltransferases (in words)” value in [2] (FIG. 1, sialyltransferases, type not specified) is reported as “specifically inhibited”. Besides, the “growth of human breast cancer MCF7 cells (in words)” value in test [10] is “inhibited the growth”.
As to `CC1(C)CC(O)C2(C)CCC3(C)C(=CCC4C5(C)CCC(OC6OC(C(=O)O)C(O)C(O)C6OC6OC(CO)C(O)C(O)C6OC6OC(CO)C(O)C(O)C6O)C(C)(CO)C5CCC43C)C2C1` (centres unmarked) [soyasaponin V], the “Percentage of inhibition (%)” value in test [1] is 32.9%; in test [2], 79.6%.
The like results for soyasaponin I-Me were, in that order, 32.2% and 63.8%.
